These results are taken from patent publication US10787444B2, “Compounds for the modulation of myc activity” (Syros Pharmaceuticals, Inc., priority 2015, dated 2020).

Where a name gives a salt, the structure may show the parent alone. Read-outs that look alike come from different tables or passages of the source.

The target of one test is T1, c-Myc/Max/Ebox DNA (Homo sapiens, UniProt P01106).
T1 construct: his6 (cleaved yes)
Description: c-Myc/Max/Ebox DNA AlphaScreen Assay. The note with it: calculated IC50 class. In kind it is binding. The procedure: Compounds of the invention were assayed for c-Myc/Max/EBox activity as described in the following protocol. Human his6-c-Myc and his6-Max were used with biotinylated DNA containing a single Ebox sequence (biotin[…]) purchased from MWG Operon. Free c-Myc was generated from his6-c-Myc through thrombin cleavage of the his6 tag. For 384-well plate assays, 10 μL of a 2× solution of free c-Myc (20 nM final), Ni^2+ coated Acceptor Beads (25 μg/ml final), and biotinylated Ebox oligo (10 nM final) were added to 384-well plates with a Biotek EL406 liquid handler. 50 nL of compounds from stock plates were added by pin transfer using a Janus Workstation (PerkinElmer), allowing the compounds to interact with c-Myc prior to c-Myc binding with Max. In the current assay, DMSO was not allowed to exceed 2% v/v of the assay. 10 μl of 2× master mix containing streptavidin-coated donor beads (25 μg/ml final) and his6-Max (5 nM) were added. AlphaScreen measurements were performed on an Envision plate reader (PerkinElmer) utilizing the manufacturer's protocol.
Both master mixes were made in room temperature assay buffer (50 mM HEPES, 150 mM NaCl, 0.2% w/v BSA, 0.02% w/v Tween20, 40 μg/ml glycogen, 500 μM DTT, pH 8.0, wherein both DTT and glycogen were added fresh). Alpha beads were added to respective master solutions. All subsequent steps were performed in low light conditions. Solution 1:2× solution of components with final concentrations of c-Myc Ni-coated Acceptor Beads (25 μg/ml), and biotinylated Ebox oligo (10 nM). Solution 2:2× solution of streptavidin-coated donor beads (25 μg/ml final) and his6-Max 10 μL. […] 50 nL of compounds from stock plates were added by pin transfer using a Janus Workstation. Solution 2 (10 μl) was added with the liquid handler. Plates were sealed with foil to block light exposure and prevent evaporation. Plates were very briefly centrifuged followed by 2 hour incubation. […] Excitation was at 680 nm for donor bead release of singlet oxygen and emission was read with a bandpass filter from 520-620 nm.

Test [1] deals with human small lung cancer cell line H2171. Description: Cell Viability Assay (ATPlite). The class given is cell-based. Particulars: H2171 cells, three days, ATPlite, calculated IC50 class, read-out: H2171 Activity. The procedure:
Compounds of the invention were assayed for cell viability using the human small lung cancer cell line H2171 as described in the following protocol. Cells were counted and adjusted to 20,000 cells/mL. Using a Biotek EL406, 50 μL of cells in media were distributed into 384 well white plates from Thermo. Immediately after plating, compound in DMSO was distributed to plates. Compounds were added to plates using a 50 nL 384 well pin transfer manifold on a Janus workstation. Stocks were arrayed in 10 point dose response in DMSO stock in 384 well Greiner compound plates. After the addition of compounds, plates were incubated for three days in a 37° C. incubator. Cell viability was read out using ATPlite from Perkin Elmer. Lyophilized powder was resuspended in lysis buffer and diluted 1:2 with deionized water. 25 μL of this solution was added to each well using the Biotek liquid handler. Plates were incubated for 15 minutes at room temperature before signal was read on an Envision Plate Reader. The data from this assay are summarized in Tables 2 and 3 below (H2171 activity).

Where [2] appears, read: Homo sapiens, NCI-H2171, 72 h, Table 2, compounds of FIG. 1.

T1 sequence (P01106 whole entry): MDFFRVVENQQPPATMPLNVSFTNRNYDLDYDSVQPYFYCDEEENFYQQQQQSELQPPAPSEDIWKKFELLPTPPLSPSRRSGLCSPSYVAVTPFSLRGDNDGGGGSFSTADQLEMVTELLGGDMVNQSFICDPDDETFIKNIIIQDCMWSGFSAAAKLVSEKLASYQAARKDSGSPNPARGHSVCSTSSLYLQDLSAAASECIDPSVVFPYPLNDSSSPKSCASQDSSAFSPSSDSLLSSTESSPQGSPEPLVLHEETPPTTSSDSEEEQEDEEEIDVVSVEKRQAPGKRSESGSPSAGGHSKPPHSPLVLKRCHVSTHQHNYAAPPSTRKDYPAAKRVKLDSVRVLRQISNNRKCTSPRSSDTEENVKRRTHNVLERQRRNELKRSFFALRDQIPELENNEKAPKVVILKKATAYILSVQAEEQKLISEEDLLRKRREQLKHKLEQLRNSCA

On to “3-(Azetidin-1-yl)-N-(3-(benzo[d]thiazol-2-yl)-6-isopropyl-4,5,6,7-tetrahydrothieno[2,3-c]pyridin-2-yl)propanamide [Compound 541]”, for which the IC50 on c-Myc/Max/Ebox DNA (Table 2, compounds of FIG. 1) was 300 to 1000 nM; in test [1] (Table 2, compounds of FIG. 1) it was 1000 to 10000 nM.

Regarding `CC(=O)Nc1sc2c(c1-c1nc3ccccc3s1)C[C@@H](C)N[C@H]2C` (relative stereo) [Compound 206, N-(3-(benzo[d]thiazol-2-yl)-cis-5,7-dimethyl-4,5,6,7-tetrahydrothieno[2,3-c]pyridin-2-yl)acetamide], the IC50 at c-Myc/Max/Ebox DNA (Table 3, compounds of FIG. 2) is 1000 to 10000 nM; in test [1] (Table 3, compounds of FIG. 2), 1000 to 10000 nM.

`CC(C)NCCC(=O)Nc1sc2c(c1-c1nc3ccccc3s1)CC(C)NC2C` (single isomer, unassigned) [Compound 195, N-(3-(benzo[d]thiazol-2-yl)-5,7-dimethyl-4,5,6,7-tetrahydrothieno[2,3-c]pyridin-2-yl)-3-(isopropylamino)propanamide]: the IC50 is less than 300 nM at c-Myc/Max/Ebox DNA (Table 2, compounds of FIG. 1) and less than 300 nM in test [1] (Table 2, compounds of FIG. 1). With `CC(C)NCCC(=O)Nc1sc2c(c1-c1nc3ccccc3s1)CC(C)NC2C` (single isomer, unassigned) [Compound 196, N-(3-(benzo[d]thiazol-2-yl)-5,7-dimethyl-4,5,6,7-tetrahydrothieno[2,3-c]pyridin-2-yl)-3-(isopropylamino)propanamide], the IC50 on c-Myc/Max/Ebox DNA (Table 2, compounds of FIG. 1) was 300 to 1000 nM; in test [1] (setting [2]) it was less than 300 nM. Consider `CC(C)NCCC(=O)Nc1sc2c(c1-c1nc3ccccc3s1)CC(C)NC2C` (single isomer, unassigned) [Compound 197, N-(3-(benzo[d]thiazol-2-yl)-5,7-dimethyl-4,5,6,7-tetrahydrothieno[2,3-c]pyridin-2-yl)-3-(isopropylamino)propanamide], for which the IC50 at c-Myc/Max/Ebox DNA (Table 2, compounds of FIG. 1) was 1000 to 10000 nM; in test [1] (Table 2, compounds of FIG. 1), 300 to 1000 nM. For `CC(C)NCCC(=O)Nc1sc2c(c1-c1nc3ccccc3s1)CC(C)NC2C` (single isomer, unassigned) [Compound 198, N-(3-(benzo[d]thiazol-2-yl)-5,7-dimethyl-4,5,6,7-tetrahydrothieno[2,3-c]pyridin-2-yl)-3-(isopropylamino)propanamide], the IC50 at c-Myc/Max/Ebox DNA (Table 2, compounds of FIG. 1) is 1000 to 10000 nM; in test [1] (Table 2, compounds of FIG. 1) it was less than 300 nM. Consider `COCCNCCC(=O)Nc1sc2c(c1-c1nc3ccccc3s1)CC(C)NC2C` (single isomer, unassigned) [Compound 508, N-(3-(Benzo[d]thiazol-2-yl)-5,7-dimethyl-4,5,6,7-tetrahydrothieno[2,3-c]pyridin-2-yl)-3-((2-methoxyethyl)amino)propanamide], for which the IC50 was 1000 to 10000 nM on c-Myc/Max/Ebox DNA (Table 2, compounds of FIG. 1) and less than 300 nM in test [1] (setting [2]). Consider `COCCNCCC(=O)Nc1sc2c(c1-c1nc3ccccc3s1)CC(C)NC2C` (single isomer, unassigned) [Compound 509, N-(3-(Benzo[d]thiazol-2-yl)-5,7-dimethyl-4,5,6,7-tetrahydrothieno[2,3-c]pyridin-2-yl)-3-((2-methoxyethyl)amino)propanamide], for which the IC50 at c-Myc/Max/Ebox DNA (Table 2, compounds of FIG. 1) is 1000 to 10000 nM; in test [1] (Table 2, compounds of FIG. 1) it was less than 300 nM.

`COCCNCCC(=O)Nc1sc2c(c1-c1nc3ccc(-c4ccncc4)cc3s1)CC(C)NC2C` (single isomer, unassigned) [Compound 517, N-(5,7-Dimethyl-3-(6-(pyridin-4-yl)benzo[d]thiazol-2-yl)-4,5,6,7-tetrahydrothieno[2,3-c]pyridin-2-yl)-3-((2-methoxyethyl)amino)propanamide]: the IC50 on c-Myc/Max/Ebox DNA (Table 2, compounds of FIG. 1) was less than 300 nM; in test [1] (setting [2]), less than 300 nM. Take `COCCNCCC(=O)Nc1sc2c(c1-c1nc3ccc(-c4cccnc4)cc3s1)CC(C)NC2C` (single isomer, unassigned) [Compound 519, N-(5,7-Dimethyl-3-(6-(pyridin-3-yl)benzo[d]thiazol-2-yl)-4,5,6,7-tetrahydrothieno[2,3-c]pyridin-2-yl)-3-((2-methoxyethyl)amino)propanamide]: the IC50 at c-Myc/Max/Ebox DNA (Table 2, compounds of FIG. 1) was less than 300 nM; in test [1] (setting [2]), less than 300 nM. `COCCNCCC(=O)Nc1sc2c(c1-c1nc3ccc(-c4cccnc4)cc3s1)CC(C)NC2C` (single isomer, unassigned) [Compound 520, N-(5,7-Dimethyl-3-(6-(pyridin-3-yl)benzo[d]thiazol-2-yl)-4,5,6,7-tetrahydrothieno[2,3-c]pyridin-2-yl)-3-((2-methoxyethyl)amino)propanamide]: the IC50 is 1000 to 10000 nM on c-Myc/Max/Ebox DNA (Table 2, compounds of FIG. 1) and 300 to 1000 nM in test [1] (Table 2, compounds of FIG. 1).

Regarding `COCCNCCC(=O)Nc1sc2c(c1-c1nc3cc(-c4ccncc4)ccc3s1)CC(C)NC2C` (single isomer, unassigned) [Compound 521, N-(5,7-dimethyl-3-(5-(pyridin-4-yl)benzo[d]thiazol-2-yl)-4,5,6,7-tetrahydrothieno[2,3-c]pyridin-2-yl)-3-((2-methoxyethyl)amino)propanamide], the IC50 was less than 300 nM on c-Myc/Max/Ebox DNA (Table 2, compounds of FIG. 1) and less than 300 nM in test [1] (setting [2]).

Take `COCCNCCC(=O)Nc1sc2c(c1-c1nc3cc(-c4ccncc4)ccc3s1)CC(C)NC2C` (single isomer, unassigned) [Compound 522, N-(5,7-dimethyl-3-(5-(pyridin-4-yl)benzo[d]thiazol-2-yl)-4,5,6,7-tetrahydrothieno[2,3-c]pyridin-2-yl)-3-((2-methoxyethyl)amino)propanamide]: the IC50 was less than 300 nM on c-Myc/Max/Ebox DNA (Table 2, compounds of FIG. 1) and less than 300 nM in test [1] (Table 2, compounds of FIG. 1). Turning to `COCCNCCC(=O)Nc1sc2c(c1-c1nc3cc(-c4ccncc4)ccc3s1)CC(C)NC2C` (single isomer, unassigned) [Compound 523, N-(5,7-dimethyl-3-(5-(pyridin-4-yl)benzo[d]thiazol-2-yl)-4,5,6,7-tetrahydrothieno[2,3-c]pyridin-2-yl)-3-((2-methoxyethyl)amino)propanamide], the IC50 at c-Myc/Max/Ebox DNA (Table 2, compounds of FIG. 1) was 1000 to 10000 nM; in test [1] (Table 2, compounds of FIG. 1), 300 to 1000 nM. `CCC(C)NCCC(=O)Nc1sc2c(c1-c1nc3cc(Br)ccc3s1)CCN(C(C)C)C2` (centres unmarked) [Compound 145, N-(3-(5-Bromobenzo[d]thiazol-2-yl)-6-isopropyl-4,5,6,7-tetrahydrothieno[2,3-c]pyridin-2-yl)-3-(sec-butylamino)propanamide]: the IC50 in test [1] (Table 2, compounds of FIG. 1) is 300 to 1000 nM. As for `CCC(C)NCCC(=O)Nc1sc2c(c1-c1nc3cc(C(F)(F)F)ccc3s1)CCN(C(C)C)C2` (centres unmarked) [Compound 146, 3-(sec-butylamino)-N-(6-isopropyl-3-(5-(trifluoromethyl)benzo[d]thiazol-2-yl)-4,5,6,7-tetrahydrothieno[2,3-c]pyridin-2-yl)propanamide], the IC50 in test [1] (Table 2, compounds of FIG. 1) is less than 300 nM. For the compound `CCOC(=O)CNCCC(=O)Nc1sc2c(c1-c1nc3ccccc3s1)CCNC2` [Compound 148, Ethyl (3-((3-(benzo[d]thiazol-2-yl)-4,5,6,7-tetrahydrothieno[2,3-c]pyridin-2-yl)amino)-3-oxopropyl)glycinate hydrochloride], in test [1] (setting [2]), the IC50 was greater than 10000 nM. On the same count and under the same terms, then `CCC(C)NCCC(=O)Nc1sc2c(c1-c1nc3cc(I)ccc3s1)CCN(C(C)C)C2` (centres unmarked) [Compound 162, 3-(sec-butylamino)-N-(3-(5-iodobenzo[d]thiazol-2-yl)-6-isopropyl-4,5,6,7-tetrahydrothieno[2,3-c]pyridin-2-yl)propanamide dihydrochloride], with 1000 to 10000 nM.

With `CC(C)N1CCc2c(sc(NC(=O)CCNC3CCCC3)c2-c2nc3ccccc3s2)C1` [Compound 542, N-(3-(Benzo[d]thiazol-2-yl)-6-isopropyl-4,5,6,7-tetrahydrothieno[2,3-c]pyridin-2-yl)-3-(cyclopentylamino)propanamide], the IC50 in test [1] (setting [2]) is less than 300 nM; in test [1] (Table 2, compounds of FIG. 1, listed as 111) it was 1000 to 10000 nM. For the compound `CCC(C)NCCC(=O)Nc1sc2c(c1-c1nc3ccccc3s1)CCNC2` (centres unmarked) [Compound 607, N-(3-(benzo[d]thiazol-2-yl)-4,5,6,7-tetrahydrothieno[2,3-c]pyridin-2-yl)-3-(sec-butylamino)propanamide], the IC50 in test [1] (Table 2, compounds of FIG. 1) was less than 300 nM.
